Test results published in US20190183812A1, “Compounds For The Treatment Of Neuromuscular Disorders” (NMD PHARMA A/S, priority 2017, published 2019).
pKd: −log10 of the molar value.

Experiments:
CIC-1 ion channels = target: T1, CIC-1 ion channels (Rattus norvegicus, UniProt P35524); test: Resting membrane conductance (Gm), three-electrode technique, rat muscle: Kd for CIC-1 inhibition; assay type: cell-based; settings: concentration that reduced Gm by 50%
T1 construct: from tissue; host or cells: soleus muscle of adult (12-14 week old) Wistar rats
T1 sequence (P35524 1-994): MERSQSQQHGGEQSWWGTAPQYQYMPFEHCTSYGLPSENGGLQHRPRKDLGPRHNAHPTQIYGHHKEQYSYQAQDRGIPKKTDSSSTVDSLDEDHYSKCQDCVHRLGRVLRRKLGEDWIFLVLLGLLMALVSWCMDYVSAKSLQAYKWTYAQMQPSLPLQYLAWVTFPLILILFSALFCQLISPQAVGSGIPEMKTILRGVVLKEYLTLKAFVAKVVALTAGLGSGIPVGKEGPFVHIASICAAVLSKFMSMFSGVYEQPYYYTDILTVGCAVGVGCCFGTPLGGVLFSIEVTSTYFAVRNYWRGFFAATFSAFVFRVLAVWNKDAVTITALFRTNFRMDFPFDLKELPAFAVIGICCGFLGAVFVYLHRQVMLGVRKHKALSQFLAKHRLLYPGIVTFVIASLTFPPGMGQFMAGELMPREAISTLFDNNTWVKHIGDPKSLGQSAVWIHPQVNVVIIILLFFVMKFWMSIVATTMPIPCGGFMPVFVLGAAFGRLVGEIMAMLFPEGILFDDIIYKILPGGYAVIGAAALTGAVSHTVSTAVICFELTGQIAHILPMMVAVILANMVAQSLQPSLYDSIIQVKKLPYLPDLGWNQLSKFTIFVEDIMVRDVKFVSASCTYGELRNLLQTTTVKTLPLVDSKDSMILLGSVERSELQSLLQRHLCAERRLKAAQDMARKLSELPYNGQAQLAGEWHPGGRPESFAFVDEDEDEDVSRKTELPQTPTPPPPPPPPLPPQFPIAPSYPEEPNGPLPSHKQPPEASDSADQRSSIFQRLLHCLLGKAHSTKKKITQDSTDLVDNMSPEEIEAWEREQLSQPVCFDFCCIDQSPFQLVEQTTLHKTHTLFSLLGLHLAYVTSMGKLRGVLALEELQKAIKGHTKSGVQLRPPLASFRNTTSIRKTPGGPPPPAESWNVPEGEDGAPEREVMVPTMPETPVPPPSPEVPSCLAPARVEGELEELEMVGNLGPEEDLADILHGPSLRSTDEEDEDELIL

[1] = system: isolated rat soleus muscles; test: Recovery of nerve-stimulated force in isolated rat soleus muscles exposed to sub-maximal tubocurarine; settings: Rattus norvegicus, 40 min; read-out: 50 μM % change after addition
Procedure: Experiments were performed using rat soleus muscles from either young (4-wk-old) or adult Wistar rats (12-14-week-old). Animal handling, killing and isolation of muscle is described elsewhere All experiments were performed using normal Krebs-Ringer bicarbonate solution (NKR). In solutions with elevated Mg^2+, MgCl2 was added to NKR-solution causing minor increases in osmolarity and ionic strength. In solutions with elevated K^+, 4 mM NaCl was replaced by 4 mM KCl in the NKR.
In all contraction experiments, isometric force production was determined and force produced during contractions was quantified by measuring the integral of the force response (AUC). Stimulation and force recordings have been described elsewhere. […] In these latter experiments, extracellular recordings of action potentials (M-waves) could be measured without temporal overlap with stimulation artefacts.
The aim was to find compounds that by inhibition of CIC-1 channels can recover nerve-stimulated force under conditions of fatigue including conditions where fatigue is caused by compromised neuromuscular transmission. Neuromuscular transmission dysfunction can develop because of both pre- and/or post-synaptic complications in connection with a disorder or as part of neuromuscular blockade during/after surgery. In the initial series of drug testing, experiments were performed with isolated muscles in the presence of sub-maximal ACh receptor antagonist tubocurarine. Since the inclusion of tubocurarine caused a partial loss of neuromuscular transmission this experiment mimics the conditions in myasthenia gravis and neuromuscular blockade. To mimic conditions with pre-synaptic complication (Lambert Eaton syndrome, motor neuron disorder, polyneuropathy) the intact nerve-muscle preparations were incubated at elevated extracellular Mg^2+, which is known to suppress release of ACh from nerve terminals of motor neurons.
To identify CIC-1 inhibitors that could be used for treatment of neuromuscular disorders we repeated the experiment shown in FIG. 2A but instead of adding 9-AC we added the compounds of interest in different concentrations within the range from 10 to 500 μM. […] For comparison with the muscle only exposed to tubocurarine (grey trace), the two traces have been overlaid. […] For comparison, muscles only exposed to tubocurarine have been included. The dotted line indicates the recovery of force with C8 when compared to the force production before its addition. This value was used in Table 1 for evaluation of the efficacy of the different compounds in recovering force.

Lewis rats = test: In situ muscle contractile characteristics: isometric hindlimb force under cisatracurium infusion; assay type: in vivo, rat; settings: 21.5 mg/kg i.v.; 12 Hz; 3 experiments
Procedure: Isometric hindlimb force was measured in 12-week old female Lewis rats in the presence and absence of compound.
Rats were placed under anesthesia with isoflurane (2-4%), intubated and subsequently connected to a micro ventilator (Microvent 1, Hallowell EMC, US). Two stimulation electrodes were inserted through the skin to stimulate the sciatic nerve. A small incision was made proximal to the ankle, to expose the Achilles tendon, which was tied by cotton string, and connected to a force transducer (Fort250, World Precision Instruments) with adjustable position (Vernier control). The Achilles tendon was then cut distal to the attached cotton string. […]
Muscle contractile properties were assessed by applying an electrical current (under supramaximal voltage conditions) to the nerve and recording the force generated by the muscle. The muscle was stretched until maximal force was obtained, when assessed by 2 Hz stimulation. Isometric force was measured every 30 seconds at 12 Hz (Twitch), 10 pulses, and at every 5 minutes at 80 Hz (Tetanic) for 1 second (80 pulses). […] The effect of test article was assessed on its ability to increase force generated from the stimulation pattern applied. The effect was assessed in the ability to increase force per se (tetanic, 80 Hz, stimulation), and the ratio between individual twitch peaks (12 Hz stimulation). […]

human CIC-1 channels = target: T2, human CIC-1 channels (Homo sapiens, UniProt P35523); test: Automated patch-clamp on human CIC-1 expressed in CHO cells; assay type: cell-based; settings: compound added to the intracellular solution vs vehicle control patches; positive shift reflects CIC-1 inhibition
T2 construct: host or cells: CHO (Chinese hamster ovary) cells
T2 sequence (P35523 whole entry): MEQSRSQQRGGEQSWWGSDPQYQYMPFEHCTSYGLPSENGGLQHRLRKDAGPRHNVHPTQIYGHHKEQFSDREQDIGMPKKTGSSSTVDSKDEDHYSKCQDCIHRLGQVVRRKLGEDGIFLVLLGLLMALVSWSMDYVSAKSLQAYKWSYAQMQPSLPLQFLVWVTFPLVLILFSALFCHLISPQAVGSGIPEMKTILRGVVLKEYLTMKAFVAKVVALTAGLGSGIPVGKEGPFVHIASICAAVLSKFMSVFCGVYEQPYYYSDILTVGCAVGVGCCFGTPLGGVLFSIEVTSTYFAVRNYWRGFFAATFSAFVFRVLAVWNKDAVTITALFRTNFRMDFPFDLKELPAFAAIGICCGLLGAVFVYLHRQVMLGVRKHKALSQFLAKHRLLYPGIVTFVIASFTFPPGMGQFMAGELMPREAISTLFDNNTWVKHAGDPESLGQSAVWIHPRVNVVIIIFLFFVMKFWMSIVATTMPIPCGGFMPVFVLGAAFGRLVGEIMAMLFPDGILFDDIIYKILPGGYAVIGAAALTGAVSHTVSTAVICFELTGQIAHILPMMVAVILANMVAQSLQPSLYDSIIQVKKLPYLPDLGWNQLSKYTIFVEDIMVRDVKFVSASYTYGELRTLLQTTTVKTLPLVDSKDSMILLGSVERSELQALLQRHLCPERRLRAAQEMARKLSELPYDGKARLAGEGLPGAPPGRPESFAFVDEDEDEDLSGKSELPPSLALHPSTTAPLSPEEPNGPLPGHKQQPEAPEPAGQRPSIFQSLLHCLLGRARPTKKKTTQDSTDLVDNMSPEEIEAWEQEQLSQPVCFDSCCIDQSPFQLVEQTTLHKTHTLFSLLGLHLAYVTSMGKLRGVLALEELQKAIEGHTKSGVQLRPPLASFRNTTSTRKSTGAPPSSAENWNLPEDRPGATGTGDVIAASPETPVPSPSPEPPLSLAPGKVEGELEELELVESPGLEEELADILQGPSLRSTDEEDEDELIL
Procedure: The investigatory goal of these experiments was to evaluate how compounds affect the open probability and current amplitude of human CIC-1 channels expressed in CHO cells. Experiments were performed using an automated patch clamp system that allowed high throughput testing of whole cell patches together with both intracellular and extracellular addition of compound.
Automated whole cell patch clamp experiments were performed with the Qpatch 16 system (Sophion Bioscience, Ballerup, Denmark) at room temperature. Data acquisition and analysis were performed in the Qassay software (ver. 5.6, Odense).
To evoke CIC-1 currents in whole cell patches, the membrane potential was initially stepped from a holding potential of −30 mV to +60 mV for 100 ms and then to various test voltages (sweeps) ranging from +120 mV to −140 mV in steps of 20 mV for 300 ms. To obtain tail currents, the membrane potential was stepped to −100 mV after each test voltage for 300 ms and then relaxed to −30 mV for 2 sec between sweeps (FIG. 3). I/V relationships for whole cell instant and steady state current amplitudes were obtained by plotting average current densities at the beginning and at the end of the 300 ms step against the membrane potential (FIG. 4).
In order to determine the relative overall open probability (P0), the instantaneous tail currents were normalized to the maximal tail current obtained following the most positive voltage step and plotted against the test voltage. Plots of normalized tail currents from each whole cell patch were then fitted to a Boltzmann function allowing determination of half activation voltages (V1/2, FIG. 5).
For automated patch clamp experiments extracellular solutions contained: 2 mM CaCl2, 1 mM MgCl2, 10 mM HEPES, 4 mM KCl, 145 mM NaCl, 10 mM Glucose, pH adjusted to 7.4 with NaOH (2 M). Osmolality adjusted to ˜320 using sucrose.
Intracellular solutions contained: 80 mM CsF, 60 mM CsCl, 5/1 mM KOH/EGTA, 10 mM HEPES, 10 mM NaCl, pH adjusted to 7.2 with NaOH (2 M). Osmolality adjusted to ˜320 mOsm using sucrose.
Cells used in patch clamp experiments were Chinese hamster ovary cells (CHO) constitutively expressing human CIC-1 channels. The amino acid sequence encoded by the cDNA used to create this cell line was identical to the translated sequence for GenBank accession number NM_000083.2. Cells were produced by Charles River (Catalogue CT6175, Cleveland Ohio, USA) in a cryopreserved format. Experiments were performed on the cells directly after thawing (3×10^6 cells used in each experiment).
To evaluate the compound effect on CIC-1, when applied directly to the intracellular side of the cell membrane, the half activation voltage, V1/2, was determined from whole cell patches with compound added to the intracellular solution and then compared to V1/2 determined from control cell patches with only vehicle added to the intracellular solution. Additionally, the effect of extracellular added compound was evaluated by determine V1/2 and steady state current amplitudes before and after exchanging the extracellular solution to contain compound.
The difference in half activation voltage of CIC-1 channels, […]V1/2, was determined as the difference between the cell patches treated intracellularly with compound and control cells patches and is reported in Table 4 below. A positive shift in […]V1/2 is reflecting CIC-1 channel inhibition by the tested compound. P-values of <0.05 is considered significant.

SMILES	pKd (CIC-1 ion channels)	activation at 50 µM [1] [%]	change in twitch peaks (Lewis rats)	ΔV½ (human CIC-1 channels) [mV]
CC(C)[C@H](Oc1ccc(Br)cc1)C(=O)O [Compound C22, (2S)-2-(4-bromophenoxy)-3methylbutanoic acid]	5.39	16		
C[C@H](Oc1ccc(Br)cc1C1CC1)C(=O)O [Compound A-2, (2S)-2-(4-bromo-2-cyclopropylphenoxy)propanoic acid]			no significant change	9.2
